Measurements taken from ChEMBL document CHEMBL5154816, “Structure-Based Discovery and Optimization of Furo[3,2-c]pyridin-4(5H)-one Derivatives as Potent and Second Bromodomain (BD2)-Selective Bromo and Extra Terminal Domain (BET) Inhibitors” (J Med Chem, 2022).

How the values were obtained:
[1] = target: T1, Bromodomain-containing protein 9 (Homo sapiens) (UniProt Q9H8M2); test: Binding affinity to His6-fused BRD9 (unknown origin) assessed as change in melting temperature at 100 uM incubated for 30 mins by thermal shift assay
T1 sequence (whole entry): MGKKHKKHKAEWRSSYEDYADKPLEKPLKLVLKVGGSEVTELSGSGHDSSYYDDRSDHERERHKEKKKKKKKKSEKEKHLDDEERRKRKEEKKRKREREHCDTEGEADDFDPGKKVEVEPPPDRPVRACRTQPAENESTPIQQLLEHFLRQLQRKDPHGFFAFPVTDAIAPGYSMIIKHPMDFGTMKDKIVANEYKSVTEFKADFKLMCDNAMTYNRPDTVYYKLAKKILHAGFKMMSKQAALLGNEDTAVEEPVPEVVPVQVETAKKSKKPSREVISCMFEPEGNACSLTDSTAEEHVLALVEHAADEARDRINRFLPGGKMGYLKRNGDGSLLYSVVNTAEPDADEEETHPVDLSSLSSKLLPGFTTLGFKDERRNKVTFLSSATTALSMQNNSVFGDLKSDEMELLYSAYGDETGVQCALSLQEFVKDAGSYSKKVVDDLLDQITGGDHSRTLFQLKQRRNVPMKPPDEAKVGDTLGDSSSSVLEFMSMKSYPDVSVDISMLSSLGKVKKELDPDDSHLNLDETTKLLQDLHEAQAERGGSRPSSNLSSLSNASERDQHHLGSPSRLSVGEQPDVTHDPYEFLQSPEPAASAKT

[2] = target: Bromodomain testis-specific protein (Homo sapiens, UniProt Q58F21); test: Binding affinity to His6-fused BRDT BD1 (unknown origin) assessed as change in melting temperature at 100 uM incubated for 30 mins by thermal shift assay
[3] = target: Chromatin remodeling regulator CECR2 (Homo sapiens) (UniProt Q9BXF3); test: Binding affinity to CECR2 (unknown origin) assessed as change in melting temperature at 100 uM incubated for 30 mins by thermal shift assay
Sequence of Chromatin remodeling regulator CECR2 (Homo sapiens) (Q9BXF3 whole entry, looked up, the tested form may be a part): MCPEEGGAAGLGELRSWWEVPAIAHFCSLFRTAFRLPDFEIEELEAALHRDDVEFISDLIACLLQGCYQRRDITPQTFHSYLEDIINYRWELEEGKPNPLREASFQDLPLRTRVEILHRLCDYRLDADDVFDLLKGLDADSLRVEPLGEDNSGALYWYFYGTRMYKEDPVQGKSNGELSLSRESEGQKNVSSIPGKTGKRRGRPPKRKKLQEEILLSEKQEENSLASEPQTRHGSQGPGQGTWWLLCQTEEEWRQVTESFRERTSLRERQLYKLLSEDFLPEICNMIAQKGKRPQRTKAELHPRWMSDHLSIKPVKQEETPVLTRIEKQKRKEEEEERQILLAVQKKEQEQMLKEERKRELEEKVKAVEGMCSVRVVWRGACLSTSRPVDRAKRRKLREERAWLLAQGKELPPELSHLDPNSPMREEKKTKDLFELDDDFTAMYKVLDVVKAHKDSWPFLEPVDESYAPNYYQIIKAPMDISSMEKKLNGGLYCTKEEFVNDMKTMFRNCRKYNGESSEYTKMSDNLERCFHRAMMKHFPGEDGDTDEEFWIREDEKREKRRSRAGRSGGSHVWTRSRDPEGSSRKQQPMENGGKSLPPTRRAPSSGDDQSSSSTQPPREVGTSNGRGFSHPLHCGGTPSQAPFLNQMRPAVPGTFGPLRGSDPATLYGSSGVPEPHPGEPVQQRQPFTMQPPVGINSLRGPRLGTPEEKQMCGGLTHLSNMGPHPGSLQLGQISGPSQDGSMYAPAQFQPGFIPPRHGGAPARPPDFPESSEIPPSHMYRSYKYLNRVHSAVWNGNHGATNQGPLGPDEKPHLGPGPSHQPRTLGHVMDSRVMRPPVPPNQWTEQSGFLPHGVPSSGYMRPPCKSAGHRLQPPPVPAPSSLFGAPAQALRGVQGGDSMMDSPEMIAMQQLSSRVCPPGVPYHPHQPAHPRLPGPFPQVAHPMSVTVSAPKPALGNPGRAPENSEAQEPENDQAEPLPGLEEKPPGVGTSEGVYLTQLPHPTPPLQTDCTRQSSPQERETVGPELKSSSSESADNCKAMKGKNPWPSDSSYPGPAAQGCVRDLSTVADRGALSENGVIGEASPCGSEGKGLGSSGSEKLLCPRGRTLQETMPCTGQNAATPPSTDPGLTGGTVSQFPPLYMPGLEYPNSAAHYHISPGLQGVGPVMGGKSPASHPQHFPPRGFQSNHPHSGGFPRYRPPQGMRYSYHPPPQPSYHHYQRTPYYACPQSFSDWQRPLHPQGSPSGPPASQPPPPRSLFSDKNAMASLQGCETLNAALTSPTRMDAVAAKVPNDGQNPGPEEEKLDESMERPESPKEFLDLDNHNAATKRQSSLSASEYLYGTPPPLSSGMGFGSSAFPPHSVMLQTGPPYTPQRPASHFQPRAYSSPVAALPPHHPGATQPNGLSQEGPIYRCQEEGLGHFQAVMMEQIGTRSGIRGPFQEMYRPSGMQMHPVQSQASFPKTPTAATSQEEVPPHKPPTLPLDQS

[4] = target: T2, Bromodomain-containing protein 7 (Homo sapiens) (UniProt Q9NPI1); test: Binding affinity to His6-fused BRD7 (unknown origin) assessed as change in melting temperature at 100 uM incubated for 30 mins by thermal shift assay
T2 sequence (whole entry): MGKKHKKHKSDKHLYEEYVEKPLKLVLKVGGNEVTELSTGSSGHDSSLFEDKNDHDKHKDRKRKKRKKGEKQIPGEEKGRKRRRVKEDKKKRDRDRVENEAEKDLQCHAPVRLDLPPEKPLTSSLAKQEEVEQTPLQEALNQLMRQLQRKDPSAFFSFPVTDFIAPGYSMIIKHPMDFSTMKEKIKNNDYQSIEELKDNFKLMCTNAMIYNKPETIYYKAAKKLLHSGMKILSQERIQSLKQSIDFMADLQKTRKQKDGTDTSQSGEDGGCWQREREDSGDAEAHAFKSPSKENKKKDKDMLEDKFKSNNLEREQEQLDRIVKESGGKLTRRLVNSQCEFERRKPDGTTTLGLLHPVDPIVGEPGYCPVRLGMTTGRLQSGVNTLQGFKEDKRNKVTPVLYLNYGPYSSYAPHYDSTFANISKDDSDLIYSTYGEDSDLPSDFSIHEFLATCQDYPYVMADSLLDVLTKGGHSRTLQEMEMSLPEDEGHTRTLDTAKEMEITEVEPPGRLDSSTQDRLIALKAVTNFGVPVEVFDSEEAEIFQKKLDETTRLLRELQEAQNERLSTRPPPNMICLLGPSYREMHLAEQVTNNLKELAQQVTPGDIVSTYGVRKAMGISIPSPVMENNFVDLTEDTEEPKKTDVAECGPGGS

[5] = target: T3, Transcription intermediary factor 1-alpha (Homo sapiens) (UniProt O15164); test: Binding affinity to TRIM24 (unknown origin) assessed as change in melting temperature at 100 uM incubated for 30 mins by thermal shift assay
T3 sequence (whole entry): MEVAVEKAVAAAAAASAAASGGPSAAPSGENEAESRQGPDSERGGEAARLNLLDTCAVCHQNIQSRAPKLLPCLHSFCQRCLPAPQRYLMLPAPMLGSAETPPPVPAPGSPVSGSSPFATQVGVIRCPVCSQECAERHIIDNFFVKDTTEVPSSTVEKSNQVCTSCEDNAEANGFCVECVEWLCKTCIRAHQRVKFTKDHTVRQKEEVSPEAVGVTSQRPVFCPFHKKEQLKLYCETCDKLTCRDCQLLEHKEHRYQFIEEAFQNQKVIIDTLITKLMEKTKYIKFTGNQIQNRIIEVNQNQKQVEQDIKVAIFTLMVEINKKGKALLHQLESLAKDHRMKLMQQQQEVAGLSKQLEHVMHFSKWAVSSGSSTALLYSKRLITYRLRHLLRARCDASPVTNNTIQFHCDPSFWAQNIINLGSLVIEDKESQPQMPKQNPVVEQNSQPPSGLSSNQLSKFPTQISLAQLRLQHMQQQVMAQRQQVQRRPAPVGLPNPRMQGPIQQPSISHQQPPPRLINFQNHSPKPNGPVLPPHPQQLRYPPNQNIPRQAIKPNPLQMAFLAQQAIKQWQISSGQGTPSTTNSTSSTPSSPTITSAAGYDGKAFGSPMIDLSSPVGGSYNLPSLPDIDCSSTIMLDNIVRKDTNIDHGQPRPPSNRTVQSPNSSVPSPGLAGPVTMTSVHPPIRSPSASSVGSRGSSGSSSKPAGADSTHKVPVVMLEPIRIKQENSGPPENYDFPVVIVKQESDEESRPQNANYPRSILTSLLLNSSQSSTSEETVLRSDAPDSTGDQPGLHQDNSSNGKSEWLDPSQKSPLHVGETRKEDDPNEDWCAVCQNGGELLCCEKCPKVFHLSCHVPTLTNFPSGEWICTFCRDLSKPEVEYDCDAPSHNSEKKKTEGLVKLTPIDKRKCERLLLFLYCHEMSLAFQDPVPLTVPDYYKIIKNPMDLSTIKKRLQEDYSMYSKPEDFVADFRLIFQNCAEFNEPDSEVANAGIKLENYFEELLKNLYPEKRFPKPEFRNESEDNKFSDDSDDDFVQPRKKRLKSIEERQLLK

[6] = target: Transcription initiation factor TFIID subunit 1 (Homo sapiens) (UniProt P21675); test: Binding affinity to TAF1 BD1(unknown origin) assessed as change in melting temperature at 100 uM incubated for 30 mins by thermal shift assay
Sequence of Transcription initiation factor TFIID subunit 1 (Homo sapiens) (P21675 whole entry): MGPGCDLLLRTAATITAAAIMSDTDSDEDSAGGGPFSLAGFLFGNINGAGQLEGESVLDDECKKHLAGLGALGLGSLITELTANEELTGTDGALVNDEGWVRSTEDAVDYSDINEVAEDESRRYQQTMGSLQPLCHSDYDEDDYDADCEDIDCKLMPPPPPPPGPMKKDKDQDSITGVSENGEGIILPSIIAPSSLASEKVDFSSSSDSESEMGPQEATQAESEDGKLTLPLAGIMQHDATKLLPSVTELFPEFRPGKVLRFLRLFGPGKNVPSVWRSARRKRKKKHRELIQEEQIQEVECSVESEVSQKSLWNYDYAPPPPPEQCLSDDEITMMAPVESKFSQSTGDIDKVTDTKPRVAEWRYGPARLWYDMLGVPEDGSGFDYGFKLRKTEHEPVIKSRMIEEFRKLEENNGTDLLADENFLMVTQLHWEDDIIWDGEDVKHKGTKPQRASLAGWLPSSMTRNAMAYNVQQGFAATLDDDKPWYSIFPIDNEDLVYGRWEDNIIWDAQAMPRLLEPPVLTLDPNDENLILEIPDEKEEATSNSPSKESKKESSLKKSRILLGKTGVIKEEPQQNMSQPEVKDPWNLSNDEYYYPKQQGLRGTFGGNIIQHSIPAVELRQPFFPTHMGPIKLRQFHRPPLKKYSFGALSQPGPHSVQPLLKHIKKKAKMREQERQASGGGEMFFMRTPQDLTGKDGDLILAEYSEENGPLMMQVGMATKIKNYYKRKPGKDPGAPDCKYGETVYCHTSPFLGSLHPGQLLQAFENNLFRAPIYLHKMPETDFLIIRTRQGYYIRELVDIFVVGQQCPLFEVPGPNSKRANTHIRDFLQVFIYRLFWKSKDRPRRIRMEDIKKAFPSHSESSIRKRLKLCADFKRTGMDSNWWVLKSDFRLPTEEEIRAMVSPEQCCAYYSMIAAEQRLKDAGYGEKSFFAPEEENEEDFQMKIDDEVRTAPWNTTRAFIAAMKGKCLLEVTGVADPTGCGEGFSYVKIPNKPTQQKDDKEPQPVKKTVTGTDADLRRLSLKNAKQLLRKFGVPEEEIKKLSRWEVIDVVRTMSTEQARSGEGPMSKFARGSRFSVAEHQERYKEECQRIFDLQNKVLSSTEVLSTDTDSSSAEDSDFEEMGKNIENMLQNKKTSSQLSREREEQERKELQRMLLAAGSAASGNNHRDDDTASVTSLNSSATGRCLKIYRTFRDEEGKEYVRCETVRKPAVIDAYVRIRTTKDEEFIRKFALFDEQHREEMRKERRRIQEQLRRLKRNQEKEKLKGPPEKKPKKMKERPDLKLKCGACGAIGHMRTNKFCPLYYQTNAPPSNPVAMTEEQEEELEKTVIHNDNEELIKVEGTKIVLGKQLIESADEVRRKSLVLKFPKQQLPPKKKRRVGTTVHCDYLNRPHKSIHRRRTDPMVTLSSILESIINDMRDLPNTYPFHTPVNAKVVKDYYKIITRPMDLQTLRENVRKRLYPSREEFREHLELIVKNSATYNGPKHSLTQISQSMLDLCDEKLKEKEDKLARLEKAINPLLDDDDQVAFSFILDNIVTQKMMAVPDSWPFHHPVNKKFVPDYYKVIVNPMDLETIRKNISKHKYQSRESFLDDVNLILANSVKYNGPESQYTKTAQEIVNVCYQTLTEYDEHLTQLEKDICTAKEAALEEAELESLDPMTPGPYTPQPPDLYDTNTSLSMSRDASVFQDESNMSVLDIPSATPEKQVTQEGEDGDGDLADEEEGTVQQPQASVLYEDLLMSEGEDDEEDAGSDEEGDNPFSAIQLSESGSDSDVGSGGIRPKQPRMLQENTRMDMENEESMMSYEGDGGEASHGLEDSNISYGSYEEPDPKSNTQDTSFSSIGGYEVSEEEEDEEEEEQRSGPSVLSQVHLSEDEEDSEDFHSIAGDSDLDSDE

[7] = target: SWI/SNF-related matrix-associated actin-dependent regulator of chromatin subfamily A member 2 (Homo sapiens) (UniProt P51531); test: Binding affinity to SMARCA2A (unknown origin) assessed as change in melting temperature at 100 uM incubated for 30 mins by thermal shift assay
Sequence of SWI/SNF-related matrix-associated actin-dependent regulator of chromatin subfamily A member 2 (Homo sapiens) (P51531 whole entry): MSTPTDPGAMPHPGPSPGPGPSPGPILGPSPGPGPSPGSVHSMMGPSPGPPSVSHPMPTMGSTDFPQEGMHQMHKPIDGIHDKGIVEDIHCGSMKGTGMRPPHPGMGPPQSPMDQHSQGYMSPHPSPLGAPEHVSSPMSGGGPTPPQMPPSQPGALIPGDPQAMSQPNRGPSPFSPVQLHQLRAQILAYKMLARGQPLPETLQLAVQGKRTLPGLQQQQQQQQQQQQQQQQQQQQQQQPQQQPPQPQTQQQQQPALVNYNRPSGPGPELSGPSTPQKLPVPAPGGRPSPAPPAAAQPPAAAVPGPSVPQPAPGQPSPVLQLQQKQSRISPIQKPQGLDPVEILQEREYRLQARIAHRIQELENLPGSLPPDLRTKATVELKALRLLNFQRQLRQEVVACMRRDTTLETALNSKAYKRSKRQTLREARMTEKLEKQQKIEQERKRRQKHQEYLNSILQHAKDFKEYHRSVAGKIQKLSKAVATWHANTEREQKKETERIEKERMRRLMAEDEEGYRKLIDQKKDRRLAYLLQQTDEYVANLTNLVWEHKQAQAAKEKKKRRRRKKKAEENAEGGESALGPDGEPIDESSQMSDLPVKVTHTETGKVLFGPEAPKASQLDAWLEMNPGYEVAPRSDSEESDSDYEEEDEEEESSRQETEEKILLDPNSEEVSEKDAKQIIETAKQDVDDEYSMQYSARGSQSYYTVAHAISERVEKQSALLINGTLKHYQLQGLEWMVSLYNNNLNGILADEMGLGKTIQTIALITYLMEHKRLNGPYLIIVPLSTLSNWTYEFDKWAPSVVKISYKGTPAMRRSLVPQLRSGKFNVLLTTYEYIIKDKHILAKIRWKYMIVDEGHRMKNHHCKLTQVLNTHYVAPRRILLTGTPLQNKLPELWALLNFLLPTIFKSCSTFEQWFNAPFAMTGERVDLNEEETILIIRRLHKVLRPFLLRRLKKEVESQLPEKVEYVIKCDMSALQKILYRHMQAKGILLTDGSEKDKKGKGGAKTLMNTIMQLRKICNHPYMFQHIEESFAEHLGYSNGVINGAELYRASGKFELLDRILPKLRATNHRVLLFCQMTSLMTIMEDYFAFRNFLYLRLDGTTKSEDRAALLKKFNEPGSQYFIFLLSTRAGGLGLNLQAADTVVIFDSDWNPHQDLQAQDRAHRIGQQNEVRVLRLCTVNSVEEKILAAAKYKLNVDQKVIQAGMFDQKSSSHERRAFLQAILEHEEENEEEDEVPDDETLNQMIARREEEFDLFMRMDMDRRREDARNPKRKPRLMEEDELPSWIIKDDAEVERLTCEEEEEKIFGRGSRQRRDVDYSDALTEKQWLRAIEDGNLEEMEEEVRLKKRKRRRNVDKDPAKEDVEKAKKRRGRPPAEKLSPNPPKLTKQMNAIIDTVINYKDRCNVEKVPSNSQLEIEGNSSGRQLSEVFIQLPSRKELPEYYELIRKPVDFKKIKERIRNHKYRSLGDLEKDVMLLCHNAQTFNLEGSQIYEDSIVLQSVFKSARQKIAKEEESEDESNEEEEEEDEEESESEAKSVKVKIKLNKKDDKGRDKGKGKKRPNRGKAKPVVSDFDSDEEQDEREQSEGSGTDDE

[8] = target: SWI/SNF-related matrix-associated actin-dependent regulator of chromatin subfamily A member 2 (Homo sapiens) (UniProt P51531); test: Binding affinity to SMARCA2B (unknown origin) assessed as change in melting temperature at 100 uM incubated for 30 mins by thermal shift assay
Homo sapiens = species: Homo sapiens; test: Selectivity index, ratio of IC50 for BRD4 BD1 (unknown origin) to IC50 of BRD4 BD2 (unknown origin)
[9] = target: Bromodomain-containing protein 4 (Homo sapiens, UniProt O60885); conditions: dose 100.0 µM, time 30.0 min

ΔTm [1] [°C] | ΔTm [2] [°C] | ΔTm [3] [°C] | ΔTm [4] [°C] | ΔTm [5] [°C] | ΔTm [6] [°C] | ΔTm [7] [°C] | ΔTm [8] [°C] | Ratio IC50 (Homo sapiens) | ΔTm [9] [°C] | SMILES
-0.75 | 2 | 0 | 0.25 | -1 | -1 | 1 | 1 | – | – | Cc1cc(F)cc(C)c1Oc1ccc(C(C)(C)O)cc1-c1cn(C)c(=O)c2cc(-c3cnc(C4CCCC4)[nH]3)oc12
-1.25 | 2 | -0.25 | 0.25 | -1 | -1.25 | 1 | 1 | 226 | 2.75 | Cc1cc(F)cc(C)c1Oc1ccc(C(C)(C)O)cc1-c1cn(C)c(=O)c2cc(-c3cnc(C4CCCCC4)[nH]3)oc12
-2 | 2.75 | 0 | 0 | -1.5 | -1.25 | 0.75 | -0.25 | 275 | 5.25 | Cc1cc(F)cc(C)c1Oc1ccc(C(C)(C)O)cc1-c1cn(C)c(=O)c2cc(-c3cnc(C4CC4)[nH]3)oc12
-0.5 | 3 | -0.25 | 0.25 | -1.25 | -1 | 0.5 | 0.75 | 294 | 5.5 | Cc1cc(F)cc(C)c1Oc1ccc(C(C)(C)O)cc1-c1cn(C)c(=O)c2cc(-c3cnc(C4CCC4)[nH]3)oc12
